Earlier results on 1 compound are cited in US20240033215A1 (AMOS PHARM, priority 2022, published 2024).

Molecules are shown by their SMILES. Converted amounts (≈) assume the structure as drawn. Read-outs that look alike come from different tables or passages of the source.

A word on the solubility: it is the concentration that dissolves in the medium under given conditions. As to `CC(C)Cc1ccc([C@H](C)C(=O)O)cc1` [Dexibuprofen], the solubility is, setting by setting: (at acidic pH) 0.078 mg/mL (≈ 0.378 mM); (at alkaline pH) 291 mg/mL (≈ 1410 mM).
